# Source: patent publication US5972945A, “2-aminoalkylaminoquinolines; dopamine receptor subtype specific ligands” (Neurogen Corporation, priority 1998, dated 1999)
# Legend:
# M2 Muscarinic subtype = experiment: M2 muscarinic subtype assay essentially as in U.S. Pat. No. 5,093,333; format: binding
# Procedure: (§1) Various compounds of the invention were also evaluated in M1 and M2 Muscarinic subtype assays essentially as set forth in U.S. Pat. No. 5,093,333.
# D4 receptor = D4 receptor binding (3H-YM 09151-2 displacement); design: species or system African Green monkey; settings: for Ki: Table 1, 0.5 nM 3H-YM 09151-2, COS cells with recombinant receptor; for D4: Table 2, compounds of U.S. Pat. No. 5,093,333 (Saab), parameter and unit not given
# Procedure: (§2) Pellets of COS cells containing recombinantly produced D2 or D4 receptors from African Green monkey were used for the assays. The sample is homogenized in 100 volumes (w/vol) of 0.05 M Tris HCl buffer at 4° C. and pH 7.4. The sample is then centrifuged at 30,000×g and resuspended and rehomogenized. The sample is then centrifuged as described and the final tissue sample is frozen until use. The tissue is resuspended 1:20 (wt/vol) in 0.05 M Tris HCl buffer containing 100 mM NaCl.
# (§3) Incubations are carried out at […] and contain 0.4 ml of tissue sample, 0.5 nM ^3 H-YM 09151-2 and the compound of interest in a total incubation of 1.0 ml. Nonspecific binding is defined as that binding found in the presence of […]; without further additions nonspecific binding is less than 20% of total binding. Binding characteristics of various compounds of the invention for D2 and D4 receptor subtypes are shown in Table 1 for […].
# M1 Muscarinic subtype = experiment: M1 muscarinic subtype assay essentially as in U.S. Pat. No. 5,093,333; format: binding
# Procedure: as §1
# D2 receptor = biological target: T1, D2 receptor (Chlorocebus aethiops, UniProt P52702); experiment: D2 receptor binding (3H-YM 09151-2 displacement); design: species or system African Green monkey; settings: Table 1; 0.5 nM 3H-YM 09151-2, COS cells with recombinant receptor
# T1 construct: expressed in transfected cells; host or cells: COS cells
# T1 sequence (P52702 whole entry): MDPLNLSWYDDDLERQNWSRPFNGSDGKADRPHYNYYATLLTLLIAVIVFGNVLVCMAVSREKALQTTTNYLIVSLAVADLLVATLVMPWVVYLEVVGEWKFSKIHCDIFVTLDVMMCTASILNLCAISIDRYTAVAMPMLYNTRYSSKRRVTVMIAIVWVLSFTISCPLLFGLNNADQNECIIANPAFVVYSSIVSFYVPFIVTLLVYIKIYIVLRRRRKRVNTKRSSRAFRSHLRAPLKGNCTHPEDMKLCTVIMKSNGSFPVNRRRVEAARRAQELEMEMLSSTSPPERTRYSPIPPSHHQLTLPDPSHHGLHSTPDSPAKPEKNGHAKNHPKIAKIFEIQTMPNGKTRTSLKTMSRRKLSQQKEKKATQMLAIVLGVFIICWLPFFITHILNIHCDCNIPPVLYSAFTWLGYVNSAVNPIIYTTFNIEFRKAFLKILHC
# Procedure: as §2, §3
# [1] = Table 2, compounds of U.S. Pat. No. 5,093,333 (Saab), parameter and unit not given
SMILES,"M2 (M2 Muscarinic subtype; Table 1, parameter not stated) [nM]",Ki (D4 receptor) [µM],"M1 (M1 Muscarinic subtype; Table 1, parameter not stated) [nM]",M2 (M2 Muscarinic subtype; [1]),D4 (D4 receptor),M1 (M1 Muscarinic subtype; [1]),Ki (D2 receptor) [µM]
"Fc1cnc(N2CCN(CCNC3=Nc4ccccc4CC3)CC2)nc1 [Compound 3, 2-3,4-dihydroquinoly(2-(4-(5-fluoropyrimidin-2-yl)piperazinyl)ethyl)amine]",144,0.008,128,,,,
Cc1cc(NCCCN2CCOCC2)nc2ccccc12,,,,2500,> 1000,1200,
"Cc1cc(NCCCN2CCN(c3ncccn3)CC2)nc2ccccc12 [Compound 22, (4-methyl(2-quinolyl))(3-(4-(pyrimidin-2-yl)piperazinyl)propyl)amine]",,0.01,,,,,3.3
Cc1cc(NCCCN2CCCC2=O)nc2ccccc12 [Saab Example 7],,,,20000,> 1000,1300,
"Cc1cccc(N2CCN(CCCNc3ccc4ccccc4n3)CC2)c1C [Compound 21, (3-(4-(2,3-dimethylphenyl)piperazinyl)propyl)2-quinolylamine]",,0.022,,,,,> 0.1
Cc1cc(NCCCN2CCN(C)CC2)nc2ccccc12 [Saab Example 3],,,,2800,> 1000,600,
"c1ccc(N2CCN(CCNC3=Nc4ccccc4CC3)CC2)nc1 [Compound 2, 2-3,4-dihdroquinolyl(2-(4-(2-pyridyl)piperazinyl)ethyl)amine]",,0.03,,,,,
c1ccc2nc(NCCCN3CCOCC3)ccc2c1 [Saab Example 2],,,,11600,> 1000,2500,
